Test results as given in US10485256B2, “Stevia sweetener with improved solubility with a cyclodextrin” (EPC Natural Products Co., Ltd., priority 2014, dated 2019).

What was measured:
[1] = Stability test: period that the system remains in solution form, without precipitation; type: physicochemical; settings: 25° C.; for stability (period the system remain a solution form, without precipitation): Concentration 1 weight %
Method: Concentration of RA was weight (g) in 100 g of water.
The stability test was performed at ambient temperature (25° C.), and was in water.
The acidic aqueous conditions were formulated with citric acid and water, and the pH was 3.0.
Concentration of RA+RD was weight (g) in 100 g of water.
The stability test was performed at ambient temperature (25° C.) and was in water.
Concentration of RA+RB+RD was weight (g) in 100 g of water.
Concentration of RB or RD was weight (g) in 100 g of water.

[2] = Dissolution property at room temperature; type: physicochemical; settings: concentration 1%; without a solublizer (no cyclodextrin); water
[3] = γ-cyclodextrin mole ratio 1, water

| Compound | stability (period the system remain a solution form, without precipitation) [1, 3] [h] | formation of a solution [2] | stability (period the system remains in solution form, without precipitation) ([1]; acidic (citric acid, pH 3.0), RA 3.5 weight %, γ-cyclodextrin mole ratio 1) [h] | stability (period the system remains in solution form, without precipitation) ([1]; neutral, RA 3 weight %, γ-cyclodextrin mole ratio 0.5, water) [h] | stability (period the system remains in solution form, without precipitation) ([1]; neutral, RA 3 weight %, γ-cyclodextrin mole ratio 0.6, water) [h] | stability (period the system remains in solution form, without precipitation) ([1]; neutral, RA 3 weight %, γ-cyclodextrin mole ratio 0.7, water) [h] | stability (period the system remains in solution form, without precipitation) ([1]; neutral, RA 3 weight %, γ-cyclodextrin mole ratio 0.8, water) [h] | stability (period the system remains in solution form, without precipitation) ([1]; neutral, RA 3 weight %, γ-cyclodextrin mole ratio 0.85, water) [h] | stability (period the system remains in solution form, without precipitation) ([1]; neutral, RA 3.5 weight %, γ-cyclodextrin mole ratio 0, water) [h] | stability (period the system remains in solution form, without precipitation) ([1]; neutral, RA 3.5 weight %, γ-cyclodextrin mole ratio 0.85, water) [h] | stability (period the system remains in solution form, without precipitation) ([1]; neutral, RA 3.5 weight %, γ-cyclodextrin mole ratio 1, water) [h] |
| --- | --- | --- | --- | --- | --- | --- | --- | --- | --- | --- | --- |
| C=C1C[C@@]23CC[C@H]4[C@@](C)(CCC[C@@]4(C)C(=O)O[C@@H]4O[C@H](CO)[C@@H](O)[C@H](O)[C@H]4O[C@@H]4O[C@H](CO)[C@@H](O)[C@H](O)[C@H]4O)[C@@H]2CC[C@]1(O[C@@H]1O[C@H](CO)[C@@H](O)[C@H](O[C@@H]2O[C@H](CO)[C@@H](O)[C@H](O)[C@H]2O)[C@H]1O[C@@H]1O[C@H](CO)[C@@H](O)[C@H](O)[C@H]1O)C3 [RD, Rebaudioside D] | 48 | did not form a solution | – | – | – | – | – | – | – | – | – |
| Rebaudioside B [RB] | 0.333 | did not form a solution | – | – | – | – | – | – | – | – | – |
| C=C1C[C@@]23CC[C@H]4[C@@](C)(CCC[C@@]4(C)C(=O)O[C@@H]4O[C@H](CO)[C@@H](O)[C@H](O)[C@H]4O)[C@@H]2CC[C@]1(O[C@@H]1O[C@H](CO)[C@@H](O)[C@H](O[C@@H]2O[C@H](CO)[C@@H](O)[C@H](O)[C@H]2O)[C@H]1O[C@@H]1O[C@H](CO)[C@@H](O)[C@H](O)[C@H]1O)C3 [RA, Rebaudioside A] | – | – | 120 | 1 | 2 | 24 | 52 | 92 | 2 | 160 | 336 |
